According to patent US7153822B2, “Compositions and methods for modulating connexin hemichannels” (Wyeth, priority 2002, dated 2006):

Key:
connexin 43 (Cx43) = assay: immunoprecipitation and immunoblot of phosphorylated connexin 43; format: cell-based; settings: cultured H9c2 cardiomyocytes
Protocol: H9c2 cells were seeded in 24-multi well dishes in a density of 7,900 cells/cm^2 (˜15,000 cells/well) and grown for 3 days in MEM suplemented with 10% foetal calf serum (FCS) and 1000 units penicillin/1000 μg streptomycin (pen/strep) in an atmosphere of 5% CO2 and 100% humidity at 37° C.
The labelled cells were incubated in Triton X-100 lysis buffer (˜5*10^7 cells/ml) for 1 hr at 4° C. The lysate is centrifuged 30 min at 20,000*g for 30 min. The supernatant was precleared by adding 10 ul Sepharose per 200 μl supernatant. The precleared supernatant were then added 0.5–1 μg phospho-tyrosine or phospho-serine antibodies (Sigma) and incubated for 1.5 hr at 4° C. in an orbital shaker. The antibody-complex was then captured by incubation with 50 μl of a 1:1 slurry of protein G Sepharose for 1.5 hr. Finally the complex were extensively washed with 0.1% (w/v) Triton X-100, 50 mM Tris, pH 7.4, 300 mM NaCl and 5 mM EDTA.
The complexes were loaded onto a 12% SDS gel and blotted onto a PVDF membrane. The membrane is blocked with 0.1% Tween 20, 50 mM Tris, pH 7.4, 300 mM NaCl, 5% dry milk (TBST) for minimum 2 h. The membrane was subsequently incubated with connexin 43 specific antibodies (Zymed) for 1.5 h at RT and developed with ECL+ (Amersham).

infarcted mice = assay: bone marrow cell transplantation after myocardial infarction (design of Orlic et al); format: in vivo; settings: repeated administration during the proliferation process
Excerpt: Myocardial infarction leads to loss of tissue and impairment of cardiac performance. The remaining myocytes are unable to reconstitute the necrotic tissue, and the post-infarcted heart deteriorates with time. Injury to a target organ is sensed by distant stem cells, which migrate to the site of damage and undergo alternate stem cell differentiation; these events promote structural and functional repair. This high degree of stem cell plasticity prompted Orlic et al (Nature 410, 701–705 (2001)) to test whether dead myocardium could be restored by transplanting bone marrow cells in infarcted mice. They sorted lineage-negative (Lin−) bone marrow cells from transgenic mice expressing enhanced green fluorescent protein by fluorescence-activated cell sorting on the basis of c-kit expression. Shortly after coronary ligation, Lin− c-kitPOS cells were injected in the contracting wall bordering the infarct. […] The developing tissue comprised proliferating myocytes and vascular structures. Their studies indicate that locally delivered bone marrow cells can generate de novo myocardium, ameliorating the outcome of coronary artery disease. […]

In the case of Ac-Gly-Asn-Tyr-NH2 [Compound 2], the “tyrosine phosphorylation of connexin 43” value (connexin 43 (Cx43)) is reported as “phosphorylation of Cx43 tyrosine” and the “connexin 43 expression” value (infarcted mice) is reported as “increase in connexin 43 expression”.
